Assay results reported in ChEMBL document CHEMBL1151517, “Morpholinoalkylindenes as antinociceptive agents: Novel cannabinoid receptor agonists” (Bioorg Med Chem Lett, 1995).

Columns and labels:
[1] = target: Cannabinoid receptor (Rattus norvegicus) (UniProt Q9QZN9+P20272); test: Inhibition to displace 50% of 0.5 nM [3H](R)-(+)-WIN-55212-2 binding to Cannabinoid receptor in rat cerebellar membranes at 1 uM concentration; assay type: cell membranes; settings: Membrane
Mus musculus [2] = test: Concentration required for inhibition of electrically stimulated contraction of mouse vas deferens […]; assay type: functional
Cannabinoid receptor = Cannabinoid receptor (Rattus norvegicus, UniProt Q9QZN9+P20272); test: Displacement of 0.5 nM [3H](R)-(+)-WIN-55212-2 from Cannabinoid receptor of rat cerebellar membranes; assay type: cell membranes, Membrane
Mus musculus [3] = test: Effective dose required for inhibition of oral acetylcholine (ACh) writhing activity in mice at 100 mg/Kg dose; assay type: functional
Mus musculus [4] = species: Mus musculus; test: Effective dose required for inhibition of oral acetylcholine (ACh) writhing activity in mice; assay type: functional
Mus musculus [5] = test: Effective dose required for inhibition of oral acetylcholine (ACh) writhing activity in mice at 10 mg/Kg dose; assay type: functional
[6] = Compound was tested for inhibitory activity against prostaglandin synthetase in mouse brain microsomes

Cannabinoid receptor (Rattus norvegicus), sequence (P20272 whole entry, looked up): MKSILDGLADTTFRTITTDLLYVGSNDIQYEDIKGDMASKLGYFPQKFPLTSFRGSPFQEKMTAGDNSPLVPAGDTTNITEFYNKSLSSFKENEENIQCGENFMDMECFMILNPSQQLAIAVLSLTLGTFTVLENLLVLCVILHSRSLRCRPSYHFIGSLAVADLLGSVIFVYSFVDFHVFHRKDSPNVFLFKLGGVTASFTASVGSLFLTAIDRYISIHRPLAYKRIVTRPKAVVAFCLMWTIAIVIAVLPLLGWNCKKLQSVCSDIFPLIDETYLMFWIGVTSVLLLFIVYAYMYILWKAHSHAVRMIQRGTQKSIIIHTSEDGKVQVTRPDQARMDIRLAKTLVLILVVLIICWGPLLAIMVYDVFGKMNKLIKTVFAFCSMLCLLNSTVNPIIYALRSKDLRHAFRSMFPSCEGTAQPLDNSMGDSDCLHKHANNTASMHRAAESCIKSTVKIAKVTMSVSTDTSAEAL
Cannabinoid receptor (Rattus norvegicus), sequence (Q9QZN9 whole entry, looked up): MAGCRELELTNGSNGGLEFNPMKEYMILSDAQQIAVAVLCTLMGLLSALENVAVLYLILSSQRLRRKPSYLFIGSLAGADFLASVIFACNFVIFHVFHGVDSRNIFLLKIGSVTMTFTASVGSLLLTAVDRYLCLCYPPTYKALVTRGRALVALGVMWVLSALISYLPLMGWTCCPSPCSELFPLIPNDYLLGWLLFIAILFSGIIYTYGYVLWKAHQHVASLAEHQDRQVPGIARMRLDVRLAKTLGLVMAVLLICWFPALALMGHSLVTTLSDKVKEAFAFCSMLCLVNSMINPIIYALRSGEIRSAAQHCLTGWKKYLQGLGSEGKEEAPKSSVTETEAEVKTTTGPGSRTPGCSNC

SMILES: C1=C(CCN2CCOCC2)c2ccccc2/C1=C/c1ccccc1
- inhibition [1]: 33%
- IC50 (Mus musculus [2]): 0.079 µM

SMILES: COc1ccc(/C=C2\C=C(CCN3CCOCC3)c3ccccc32)c2ccccc12
- IC50 (Mus musculus [2]): 0.008 µM
- IC50 (Cannabinoid receptor): 0.9 µM

SMILES: COc1ccc(C=C2C(C)=C(CCN3CCOCC3)c3ccccc32)cc1
- inhibition in vivo at 100 mg/kg (Mus musculus [3]): 30%
- IC50 (Cannabinoid receptor): 45 µM

SMILES: C[S+]([O-])c1ccc(/C=C2\C=C(CCN3CCOCC3)c3ccccc32)cc1 (centres undefined)
- IC50 (Mus musculus [2]): 0.19 µM

SMILES: CSc1ccc(/C=C2\C=C(CCN3CCOCC3)c3ccccc32)cc1
- ED50 (Mus musculus [4]): 50 mg/kg
- IC50 (Cannabinoid receptor): 96 µM

SMILES: Oc1ccc(/C=C2\C=C(CCN3CCOCC3)c3ccccc32)c2ccccc12
- IC50 (Cannabinoid receptor): 97 µM

SMILES: COc1ccc(/C=C2\C=C(CCN3CCOCC3)c3ccccc32)cc1OC
- IC50 (Mus musculus [2]): 0.019 µM
- IC50 (Cannabinoid receptor): 28 µM

SMILES: C1=C(CCN2CCOCC2)c2ccccc2/C1=C/c1cccc2ccccc12
- IC50 (Mus musculus [2]): 0.007 µM
- IC50 (Cannabinoid receptor): 1 µM
- inhibition in vivo at 10 mg/kg (Mus musculus [5]): 83%

SMILES: COc1ccc(C=C2C(C)=C(CCN3CCOCC3)c3ccccc32)c2ccccc12
- inhibition in vivo at 100 mg/kg (Mus musculus [3]): 39%
- IC50 (Mus musculus [2]): 0.35 µM

SMILES: CC1=C(CCN2CCOCC2)c2ccccc2C1=Cc1cccc2ccccc12
- IC50 (Mus musculus [2]): 0.045 µM
- IC50 (Cannabinoid receptor): 10 µM

SMILES: COc1ccc(C(=O)c2c(C)n(CCN3CCOCC3)c3ccccc23)cc1 [PRAVADOLINE]
- IC50 [6]: 3.5 µM
- IC50 (Mus musculus [2]): 0.53 µM
- ED50 (Mus musculus [4]): 41 mg/kg

SMILES: COc1ccc(/C=C2\C=C(CCN3CCOCC3)c3ccccc32)cc1
- IC50 (Mus musculus [2]): 0.08 µM
- IC50 (Cannabinoid receptor): 0.058 µM
